In PMC9231089, “Sorafenib Chemosensitization by Caryophyllane Sesquiterpenes in Liver, Biliary, and Pancreatic Cancer Cells: The Role of STAT3/ABC Transporter Axis” (Pharmaceutics, 2022):
Marks after values point to notes of the source that are not given here.

Key:
[1] = tested on: MRP2; assay: Immunofluorescence analysis in Bx-PC3 cells, MRP2; type: cell-based, human
Description: (§1) Suitable vehicle controls were also included.
(§2) The analysis was performed according to previously published methods. Confluent cells were seeded in 24-well plates (2 × 10^4 cells/well), allowed to adhere overnight, then treated as described above. After treatment, cells were fixed in pure methanol and washed with 4% bovine serum albumin (BSA) and PBS + Tween 20 (PBS-T) for 1 h. […] The expression and localization of Pgp, MRP1, and MRP2 pumps into cells were analyzed by using a Cytation 1 Cell Imaging Multimode Reader (Biotech, USA).

[2] = tested on: MRP1; assay: Immunofluorescence analysis in Bx-PC3 cells, MRP1; type: cell-based, human; details: substance 10 µg/mL in combination with sorafenib 10 µg/mL
Description: as §1, §2

[3] = tested on: HepG2; assay: MTT cytotoxicity assay, substances alone, HepG2; type: cell-based, human; details: HepG2
Description: as §1
(§3) The effect of the treatments on cell viability was measured by the MTT assay as previously described. A higher than 30% reduction of cell viability was considered as a significant cytotoxic effect.

[4] = tested on: Mz-ChA-1; assay: Combination assay with sorafenib (MTT), Mz-ChA-1; type: cell-based, human;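 on increase of sorafenib cytotoxicity in combination: percent increase of sorafenib cell viability inhibition versus sorafenib alone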
Description: as §1
(§4) The type of interaction (synergistic, additive, or antagonistic) among sorafenib and test substances or positive controls was evaluated by measuring the reversal ratio value (RR), combination index (CI), and isobolographic analysis (IB), as previously described.

[5] = tested on: noncancerous H69 cholangiocytes; assay: Combination assay with sorafenib (MTT), tolerability in H69; type: cell-based, human; details: sesquiterpene 10 μg/mL combined with sorafenib (protective effect at sorafenib 10 μg/mL)
Description: as §1, §4

[6] = tested on: MRP1/2; assay: ABC-mediated drug efflux assay, calcein-AM accumulation, HepG2 cells; type: cell-based, human; details: 2 h pre-treatment, sesquiterpenes 10 μg/mL, vs control
[7] = tested on: MRP2; assay: RT-qPCR gene expression in Bx-PC3 cells, MRP2; details: substance in combination with sorafenib, given for MRP1 and MRP2 together
Description: (§6) Confluent cells were treated with the test substances, both alone or in combination with the anticancer drug, for 4 h, then washed and incubated for a further 72 h (Figure 1), according to previously published protocols [20]. […] Suitable vehicle controls were also included.
(§7) The results of mRNA abundance for the targeted genes in each sample were normalized on the basis of GAPDH (Bio-Rad, Hercules, CA, USA) mRNA. Data are expressed as 2^−ΔCt, calculated using the CFX Manager software (Bio-Rad).

[8] = design: method as in PMID 33081075; details: European Food Safety Authority; cited from earlier work
[9] = tested on: Bx-PC3; assay: Combination assay with sorafenib (MTT), Bx-PC3; type: cell-based, human;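 on increase of sorafenib cytotoxicity in combination: percent increase of sorafenib cell viability inhibition versus sorafenib alone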
Description: as §1, §4

[10] = tested on: Pgp; assay: Immunofluorescence analysis in Bx-PC3 cells, Pgp; type: cell-based, human
Description: as §1, §2

[11] = tested on: MRP1/2; assay: ABC-mediated drug efflux assay, calcein-AM accumulation, Bx-PC3 cells; type: cell-based, human; details: 2 h pre-treatment, sesquiterpenes 10 μg/mL, MK571 1 μg/mL, vs control
[12] = tested on: noncancerous H69 cholangiocytes; assay: MTT cytotoxicity assay (tolerability), substances alone, H69; type: cell-based, human; details: H69 noncancerous cholangiocytes; substance alone; 4 h exposure + 72 h recovery
Description: as §1, §3

[13] = tested on: HepG2; assay: Combination assay with sorafenib (MTT), HepG2; type: cell-based, human; details: for increase of sorafenib cytotoxicity in combination: verapamil/MK571 1 µg/mL or sesquiterpenes 10 µg/mL;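 on increase of sorafenib cytotoxicity in combination: percent increase of sorafenib cell viability inhibition versus sorafenib alone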
Description: as §1, §4

[14] = tested on: MRP1; assay: RT-qPCR gene expression in Bx-PC3 cells, MRP1; type: cell-based, human; details: substance in combination with sorafenib, given for MRP1 and MRP2 together
Description: as §1

[15] = molecular target: T1, Pgp (Homo sapiens, UniProt P08183); assay: ABC-mediated drug efflux assay, rhodamine 123 accumulation, HepG2 cells; details: 2 h pre-treatment, sesquiterpenes 10 μg/mL, verapamil 1 μg/mL, vs control
T1 sequence (P08183 whole entry): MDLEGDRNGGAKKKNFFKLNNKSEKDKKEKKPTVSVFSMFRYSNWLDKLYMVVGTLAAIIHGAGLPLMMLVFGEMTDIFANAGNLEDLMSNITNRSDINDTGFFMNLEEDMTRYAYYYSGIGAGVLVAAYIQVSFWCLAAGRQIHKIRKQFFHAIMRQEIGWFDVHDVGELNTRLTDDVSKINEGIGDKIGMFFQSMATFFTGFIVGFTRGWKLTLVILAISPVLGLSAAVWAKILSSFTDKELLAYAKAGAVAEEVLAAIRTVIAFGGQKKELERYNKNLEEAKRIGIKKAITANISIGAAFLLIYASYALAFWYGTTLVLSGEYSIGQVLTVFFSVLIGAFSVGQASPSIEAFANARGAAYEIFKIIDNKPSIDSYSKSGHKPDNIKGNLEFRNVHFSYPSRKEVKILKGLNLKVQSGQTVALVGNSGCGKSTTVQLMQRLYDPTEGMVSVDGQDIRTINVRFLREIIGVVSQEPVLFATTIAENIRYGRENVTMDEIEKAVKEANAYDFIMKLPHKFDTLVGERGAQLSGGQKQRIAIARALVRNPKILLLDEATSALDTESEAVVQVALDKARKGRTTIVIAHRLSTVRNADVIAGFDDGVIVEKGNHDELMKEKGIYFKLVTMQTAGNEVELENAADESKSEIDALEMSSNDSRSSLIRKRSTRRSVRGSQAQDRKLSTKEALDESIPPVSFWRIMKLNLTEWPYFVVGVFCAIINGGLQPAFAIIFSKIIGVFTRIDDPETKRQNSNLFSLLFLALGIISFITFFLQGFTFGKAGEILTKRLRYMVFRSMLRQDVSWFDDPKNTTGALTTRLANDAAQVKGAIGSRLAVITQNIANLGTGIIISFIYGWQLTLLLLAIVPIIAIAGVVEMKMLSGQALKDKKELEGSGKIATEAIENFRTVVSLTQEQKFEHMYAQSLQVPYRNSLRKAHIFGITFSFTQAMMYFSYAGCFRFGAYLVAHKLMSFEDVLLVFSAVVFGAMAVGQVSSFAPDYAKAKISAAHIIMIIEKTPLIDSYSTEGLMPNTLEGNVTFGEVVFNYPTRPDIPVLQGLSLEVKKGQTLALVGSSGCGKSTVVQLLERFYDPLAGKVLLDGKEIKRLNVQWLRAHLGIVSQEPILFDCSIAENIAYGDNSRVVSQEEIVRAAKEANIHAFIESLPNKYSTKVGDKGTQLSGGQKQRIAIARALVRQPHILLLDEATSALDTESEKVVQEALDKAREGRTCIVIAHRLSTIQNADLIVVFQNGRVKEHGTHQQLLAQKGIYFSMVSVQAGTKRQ
Description: (§5) The ability of β-caryophyllene and β-caryophyllene oxide to inhibit the activity of Pgp and MRP1/2 transporters was measured according to previously published methods with slight modifications. […] Fluorescence was measured at excitation and emission wavelengths of 485 nm and 535 nm for both probes, using a Cytation 1 Cell Imaging Multimode Reader (Biotech, Santa Clara, CA, USA). Results were normalized to viable cells and expressed as percentage of the negative control.

[16] = tested on: Mz-ChA-1; assay: MTT cytotoxicity assay, substances alone, Mz-ChA-1; type: cell-based, human; details: Mz-ChA-1
Description: as §1, §3

[17] = tested on: phospho(Tyr705)-STAT3; assay: Western blotting of STAT3 phosphorylation in Bx-PC3 cells; type: cell-based, human
Description: as §1
Confluent cells were seeded in 6-well plates (5 × 10^5 cells/well), treated as described above, then harvested by centrifugation and washed in PBS. After lysis with a suitable buffer, the Western blotting analysis was carried out, according to previously published methods. […] The levels of phospho(Tyr705)-STAT3 were normalized against total STAT3 ones.

[18] = tested on: MDR1; assay: RT-qPCR gene expression in Bx-PC3 cells, MDR1
Description: as §6, §7

[19] = tested on: Bx-PC3 cells; assay: Wound healing assay (cell migration); type: cell-based, human
Description: To evaluate the effect of caryophyllane sesquiterpenes, both alone and in combination with sorafenib, on the cell migration rate, the wound healing assay was performed. Bx-PC3 cells were seeded in 24-well plate at a density of 2.5 × 10^5 cells/well. After 24 h, the wound was created by scratching the well bottom with a 100 μL pipette tip, then the cells were treated under the scheduled conditions and images were captured at 0, 4, and 72 h using a Cytation 1 Cell Imaging Multi-Mode Reader. […] Results were expressed as wound area percentage with respect to that of the same well at zero time. The positive controls were also included.

[20] = molecular target: T1, Pgp; assay: ABC-mediated drug efflux assay, rhodamine 123 accumulation, Mz-ChA-1 cells; details: 2 h pre-treatment, sesquiterpenes 10 μg/mL, verapamil 1 μg/mL, vs control
Description: as §5

[21] = design: method as in PMID 30659321; details: previous in vivo study; cited from earlier work
[22] = tested on: MRP1/2; assay: ABC-mediated drug efflux assay, calcein-AM accumulation, Mz-ChA-1 cells; type: cell-based, human; details: 2 h pre-treatment, sesquiterpenes 10 μg/mL, vs control
[23] = molecular target: T1, Pgp; assay: ABC-mediated drug efflux assay, rhodamine 123 accumulation, Bx-PC3 cells; details: 2 h pre-treatment, sesquiterpenes 10 μg/mL, verapamil 1 μg/mL, vs control
Description: as §5

[24] = tested on: Bx-PC3; assay: MTT cytotoxicity assay, substances alone, Bx-PC3; type: cell-based, human
Description: as §1, §3

[25] = substance in combination with sorafenib 10 μg/mL
[26] = substance alone, 4 h exposure + 72 h recovery

C=C1CC[C@H]2O[C@]2(C)CC[C@@H]2[C@@H]1CC2(C)C [β-Caryophyllene oxide, β-caryophyllene oxide]
reduction of MRP2 expression with respect to sorafenib ([1]; substance 10 µg/mL in combination with sorafenib 10 µg/mL): 1.6 fold | increase of MRP2 expression (immunofluorescence) ([1]; substance alone, 10 µg/mL): 1.2 fold | reduction of MRP1 expression with respect to sorafenib [2]: 1.5 fold | IC50 higher than that of sorafenib [3]: 1.7 fold | IC50 (CL) ([3]; substance alone, 4 h exposure + 72 h recovery, CL confidence limits): 78.7 (76.8–80.5) *** µg/mL | reduction of sorafenib IC50 in the presence of the substance [4]: ~1.5 fold | combination index (CI) with sorafenib ([4]; CI lower than 1 = synergistic): 0.76 | increase of sorafenib cytotoxicity in combination ([4]; sorafenib 10 µg/mL, verapamil/MK571 1 µg/mL or sesquiterpenes 10 µg/mL): 14% | increase of sorafenib cytotoxicity in combination ([4]; sorafenib 50 µg/mL, sesquiterpenes 10 µg/mL): 13% | effect on sorafenib cytotoxicity in noncancerous cells [5]: null effect | increase of calcein-AM accumulation [6]: approximately 1.3 fold | reduction of MRP2 gene expression [7]: 3 fold | considered safe up to (approved as flavoring) [8]: ≤ 109 mg/kg/die | reduction of sorafenib IC50 in the presence of the substance [9]: 9 fold | combination index (CI) with sorafenib ([9]; CI lower than 1 = synergistic): 0.26 | increase of sorafenib cytotoxicity in combination ([9]; sesquiterpenes 10 µg/mL, sorafenib concentration not stated (Figure 3F)): 64% | effect on Pgp expression (immunofluorescence) ([10]; substance alone, sorafenib and sesquiterpenes 10 µg/mL, verapamil 1 µg/mL): did not affect | reduction of Pgp expression compared to control [10, 25]: ~1.8 fold | increase of calcein-AM accumulation [11]: ~3.0 fold | IC50 (CL) [12]: 99.7 (93.1–106.9) *** µg/mL | reduction of sorafenib IC50 in the presence of the substance [13]: ~6 fold | combination index (CI) with sorafenib ([13]; CI lower than 1 = synergistic): 0.29 | increase of sorafenib cytotoxicity in combination ([13]; sorafenib 1 µg/mL): 20% | increase of sorafenib cytotoxicity in combination ([13]; sorafenib 10 µg/mL): ~44% | reduction of MRP1 gene expression [14]: 3 fold | increase of rhodamine 123 accumulation [15]: ~2.5 fold | IC50 higher than that of sorafenib [16]: 1.2 fold | inhibition of cell viability ([16]; 50 µg/mL): 16% | inhibition of cell viability ([16]; 250 µg/mL): 90% | IC50 (CL) [16, 26]: 94.5 (90.1–99.1) ** µg/mL | increase of STAT3 phosphorylation at tyrosine 705 ([17]; substance alone, sorafenib and sesquiterpenes 10 μg/mL, verapamil/MK571 1 μg/mL, normalized to total STAT3): approximately 3 fold | reduction of phospho(Tyr705)-STAT3 with respect to sorafenib [17, 25]: 2.6 fold | increase of MDR1 gene expression with respect to control [18, 26]: 4.7 fold | downregulation of MDR1 gene with respect to sorafenib alone ([18]; substance in combination with sorafenib): 1.3 fold | wound area / cell migration after 72 h ([19]; substance alone, sesquiterpenes 10 µg/mL, verapamil/MK571 1 µg/mL): blocked cell migration | increase of wound area ([19]; substance in combination with sorafenib 10 µg/mL, reference and time not stated): ~5 fold | increase of rhodamine 123 accumulation [20]: ~1.2 fold | safety in vivo up to [21]: ≤ 100 mg/kg | increase of calcein-AM accumulation [22]: ~1.4 fold | increase of rhodamine 123 accumulation [23]: approximately 2.7 fold | IC50 higher than that of sorafenib [24]: 2.1 fold | inhibition of cell viability ([24]; 50 µg/mL): 30% | inhibition of cell viability ([24]; 250 µg/mL): 95% | IC50 (CL) [24, 26]: 65.3 (62.1–68.7) *** µg/mL
